pEC50: −log10 of the molar value. Converted amounts (≈) assume the structure as drawn. Where two headings read alike, the source gives them in different places. Positions of bridges follow the written chain, without caps; N, C: chain ends. Non-standard residues stand in square brackets, D forms with d. Residues, ends and D or L forms follow the SMILES beside them. dPhe(4-CF3) = N[C@H](Cc1ccc(C(F)(F)F)cc1)C(=O)O; dTrp(6-F) = N[C@H](Cc1c[nH]c2cc(F)ccc12)C(=O)O; R5 = C=CCCC[C@@](C)(N)C(=O)O
Experiments:
[1] = Solubility assay (kinetic solubility, PBS pH 7); assay type: physicochemical; conditions: pH 7, aqueous buffer, kinetic from dmso stock, pH 7, PBS; read-out: Solubility
Procedure, shortened: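 Next, measure peak areas of sample and standard. Finally, multiply their ratio by the standard concentration to obtain solubility (µM).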

[2] = Circular dichroism (CD) helicity; assay type: physicochemical
Procedure, shortened: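 Helicity was estimated by CDNN deconvolution of mean residue ellipticity from 190–300 nm spectra taken at 25 °C (0.2 cm path). Samples were 1 mM peptide in 1 mM HEPES pH 7.4/5% methanol, quantified by 280 nm absorbance; values are means of at least duplicate measurements.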

[3] = tested on: Jump-In T-REx CHO-K1 BLA cells; assay: cells; assay type: cell-based; conditions: for pEC50: read-out: TETCHO: Counterscreen EC50
[4] = tested on: p53 responsive β-lactamase reporter in HCT116 cells; assay: cells; assay type: cell-based; conditions: for pEC50: read-out: p53 reporter assay EC50
Procedure, shortened: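 Read-out used the ToxBLAzer Dual Screen for β-lactamase driven by a stably integrated p53-responsive reporter. Assay: 8000 HCT116 cells per well at 0.5% final DMSO. Reported numbers are geometric means over a minimum of three biological replicates.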

With `CC(=O)N[C@@H](C(=O)N[C@H](C)C(=O)N[C@H](Cc1c[nH]c2cc(F)ccc12)C(=O)N[C@H](Cc1ccc(O)cc1)C(=O)N[C@H](C)C(=O)N[C@]1(C)CCCC=CCCC[C@](C)(C(=O)N[C@H](CC(C)C)C(=O)N[C@H](CO)C(=O)N[C@H](C)C(=O)N[C@H](C)C(=O)N[C@H](C)C(=O)N[C@H](C)C(=O)N[C@H](C)C(=O)N[C@H](C)C(=O)N[C@H](C)C(=O)N[C@H](C)C(=O)N[C@H](C)C(N)=O)NC(=O)[C@@H](CCC(N)=O)NC(=O)[C@@H](CCC(=O)O)NC(=O)[C@@H](Cc2ccc(C(F)(F)F)cc2)NC1=O)[C@H](C)O` [MP-1230] (Ac-[dT][dA][dTrp(6-F)][dY][dA][R5][dPhe(4-CF3)][dE][dQ][R5][dL][dS][dA][dA][dA][dA][dA][dA][dA][dA][dA]-NH2; staple 6-10) the solubility kinetic [1] was 16 µM (≈ 35.7 µg/mL), the “CD % Helicity” value [2] was 8.3% and the “TETCHO: Counterscreen % Effect” value ([3]; 0% FBS 4Hr) was 16.32%. The pEC50 ([3]; 0% FBS 4Hr) was less than 4.30, the “TETCHO: Counterscreen % Effect” value ([3]; 10% FBS 16Hr) was -1.934% and the pEC50 ([3]; 10% FBS 16Hr) was less than 4.30. The EPSA (physchem) was 190 A^2, the “p53 reporter assay % Effect” value ([4]; 0% FBS 4Hr) was 14.85% and the pEC50 ([4]; 0% FBS 4Hr) was less than 4.30. The “p53 reporter assay % Effect” value ([4]; 10% FBS 16Hr) was 35.9% and the pEC50 ([4]; 10% FBS 16Hr) was less than 4.30.

From PMC10786919, “Design-rules for stapled peptides with in vivo activity and their application to Mdm2/X antagonists” (Nature Communications, 2024)
